Where a SMILES comes first, the peptide text is derived from it. [ ]: non-standard residue; d: D form. Dmt = Cc1cc(O)cc(C)c1C[C@H](N)C(=O)O

Broadly, the Ki is a measure of affinity in units of concentration, obtained from inhibition or displacement.

For the first test, the species on record is Rattus norvegicus. The experiment in a line: Antinidatory effect was determined in rat. Format: functional. Also noted: unit not given here.
With `O=C(O)/C=C/C/C=C\C[C@@H]1[C@@H](/C=C/[C@@H](O)COc2cccc(Cl)c2)[C@H](O)C[C@@H]1O`, the “Log ED50” value is on record as 2.301.

`O=C(O)CCC/C=C/C[C@@H]1[C@@H](/C=C/[C@@H](O)C2CC2c2ccccc2)[C@H](O)C[C@@H]1O` (stereo not given in full): the “Log ED50” value is reported as 1.398.

Consider `O=C(O)/C=C/C=C/C=C/[C@@H]1[C@@H](/C=C/[C@@H](O)COc2cccc(Cl)c2)[C@H](O)C[C@@H]1O`, for which the “Log ED50” value came to 0.699. As to `O=C(O)CCC/C=C\C[C@@H]1[C@@H](/C=C/[C@@H](O)C#Cc2ccccc2)[C@H](O)C[C@@H]1O`, the “Log ED50” value is given as 1.699.

For `O=C(O)C/C=C/C=C\C[C@@H]1[C@@H](/C=C/[C@@H](O)COc2cccc(Cl)c2)[C@H](O)C[C@@H]1O`, the “Log ED50” value was found to be 2.886. Still for that read-out and setting: the figure for `CCCOC[C@H](O)/C=C/[C@@H]1[C@@H](C/C=C\CCCC(=O)O)[C@@H](O)C[C@H]1O` is 0.398; for `O=C(O)CCC/C=C\C[C@@H]1[C@@H](/C=C/[C@@H](O)COc2ccc(F)cc2)[C@H](O)C[C@@H]1O` it is 2.301.

For `O=C(O)/C=C/C=C/CC[C@@H]1[C@@H](/C=C/[C@@H](O)COc2cccc(Cl)c2)[C@H](O)C[C@@H]1O`, the “Log ED50” value is 0.777. On the same count and under the same terms, the figure for `O=C(O)C/C=C/C=C/C[C@@H]1[C@@H](/C=C/[C@@H](O)COc2ccccc2)[C@H](O)C[C@@H]1O` is 1.699. On the same count and under the same terms, the figure for `CCCCCCOC[C@H](O)/C=C/[C@@H]1[C@@H](C/C=C\CCCC(=O)O)[C@@H](O)C[C@H]1O` is 0.699.

`O=C(O)/C=C/C/C=C\C[C@@H]1[C@@H](/C=C/[C@@H](O)COc2ccccc2)[C@H](O)C[C@@H]1O`: the “Log ED50” value is reported as 2.481. Still for that read-out and setting: under `O=C(O)/C=C/C/C=C/C[C@@H]1[C@@H](/C=C/[C@@H](O)COc2cccc(Cl)c2)[C@H](O)C[C@@H]1O` stands 2. On the same count and under the same terms, the figure for `CCC(C)(C)CC[C@H](O)/C=C/[C@@H]1[C@@H](C/C=C\CCCC(=O)O)[C@@H](O)C[C@H]1O` is 0.664; for `O=C(O)CC/C=C\CC[C@@H]1[C@@H](/C=C/[C@@H](O)CCc2ccccc2)[C@H](O)C[C@@H]1O` it is 2.301. Same read-out and setting: the figure for `CCCCC(C)(C)[C@H](O)/C=C/[C@@H]1[C@@H](C/C=C\CCCC(=O)O)[C@@H](O)C[C@H]1O` is 0.081. For the compound `O=C(O)CCC/C=C\C[C@@H]1[C@@H](/C=C/[C@@H](O)C#CC2CCCCC2)[C@H](O)C[C@@H]1O`, the “Log ED50” value was 1.959. `O=C(O)CCC/C=C\C[C@@H]1[C@@H](/C=C/[C@@H](O)C#Cc2cccs2)[C@H](O)C[C@@H]1O`: the “Log ED50” value amounted to 0.602. The same measure, in the same setting: under `O=C(O)/C=C/C/C=C\C[C@@H]1[C@@H](/C=C/[C@@H](O)COc2ccc(Cl)cc2)[C@H](O)C[C@@H]1O` stands 2; under `O=C(O)/C=C/CCCC[C@@H]1[C@@H](/C=C/[C@@H](O)COc2cccc(C(F)(F)F)c2)[C@H](O)C[C@@H]1O`, 0.602. Still for that read-out and setting: under `COc1cccc(C#C[C@H](O)/C=C/[C@@H]2[C@@H](CCCCCCC(=O)O)[C@@H](O)C[C@H]2O)c1` stands 2.

As to `O=C(O)C/C=C/C=C\C[C@@H]1[C@@H](/C=C/[C@@H](O)COc2ccccc2)[C@H](O)C[C@@H]1O`, the “Log ED50” value is recorded as 0. The same measure, in the same setting: the figure for `COCCCCC[C@H](O)/C=C/[C@@H]1[C@@H](C/C=C\CCCC(=O)O)[C@@H](O)C[C@H]1O` is 0.398.

For `O=C(O)CCC/C=C\C[C@@H]1[C@@H](/C=C/[C@@H](O)/C=C/c2ccccc2)[C@H](O)C[C@@H]1O`, the “Log ED50” value is recorded as -0.602. On the same count and under the same terms, under `CCCCCCC[C@H](O)/C=C/[C@@H]1[C@@H](C/C=C\CCCC(=O)O)[C@@H](O)C[C@H]1O` stands 0.669; under `O=C(O)CCC/C=C\C[C@@H]1[C@@H](/C=C/[C@@H](O)c2ccc(C(F)(F)F)cc2)[C@H](O)C[C@@H]1O`, 1.699; under `O=C(O)/C=C\CCCC[C@@H]1[C@@H](/C=C/[C@@H](O)COc2cccc(C(F)(F)F)c2)[C@H](O)C[C@@H]1O`, 0.482. The same measure, in the same setting: the figure for `CCCOCCC[C@H](O)/C=C/[C@@H]1[C@@H](C/C=C\CCCC(=O)O)[C@@H](O)C[C@H]1O` is -0.602; for `CCCC(C)(C)C[C@H](O)/C=C/[C@@H]1[C@@H](C/C=C\CCCC(=O)O)[C@@H](O)C[C@H]1O` it is 0.279. Same read-out and setting: the figure for `O=C(O)CCC/C=C\C[C@@H]1[C@@H](/C=C/[C@@H](O)C#Cc2ccco2)[C@H](O)C[C@@H]1O` is 0. As for `O=C(O)/C=C/C=C/C=C/[C@@H]1[C@@H](/C=C/[C@@H](O)COc2ccccc2)[C@H](O)C[C@@H]1O`, the “Log ED50” value is 0.699. Same read-out and setting: under `CCCCOC[C@H](O)/C=C/[C@@H]1[C@@H](C/C=C\CCCC(=O)O)[C@@H](O)C[C@H]1O` stands 1. For the compound `CCCCOCC[C@H](O)/C=C/[C@@H]1[C@@H](C/C=C\CCCC(=O)O)[C@@H](O)C[C@H]1O`, the “Log ED50” value is -0.301. On the same count and under the same terms, under `O=C(O)/C=C/C/C=C\C[C@@H]1[C@@H](/C=C/[C@@H](O)COc2cccc(C(F)(F)F)c2)[C@H](O)C[C@@H]1O` stands 2; under `CCCCCOC[C@H](O)/C=C/[C@@H]1[C@@H](C/C=C\CCCC(=O)O)[C@@H](O)C[C@H]1O`, 1; under `CCOCCCC[C@H](O)/C=C/[C@@H]1[C@@H](C/C=C\CCCC(=O)O)[C@@H](O)C[C@H]1O`, 0.699.

The target of another test is T1, Mu-type opioid receptor (Rattus norvegicus, UniProt P33535). The experiment in a line: Inhibition of DAMGO (Tyr-[D-Ala]-Gly-[NMe-Phe]-Gly-ol) binding to rat brain mu opioid receptor.
T1 sequence (P33535 whole entry): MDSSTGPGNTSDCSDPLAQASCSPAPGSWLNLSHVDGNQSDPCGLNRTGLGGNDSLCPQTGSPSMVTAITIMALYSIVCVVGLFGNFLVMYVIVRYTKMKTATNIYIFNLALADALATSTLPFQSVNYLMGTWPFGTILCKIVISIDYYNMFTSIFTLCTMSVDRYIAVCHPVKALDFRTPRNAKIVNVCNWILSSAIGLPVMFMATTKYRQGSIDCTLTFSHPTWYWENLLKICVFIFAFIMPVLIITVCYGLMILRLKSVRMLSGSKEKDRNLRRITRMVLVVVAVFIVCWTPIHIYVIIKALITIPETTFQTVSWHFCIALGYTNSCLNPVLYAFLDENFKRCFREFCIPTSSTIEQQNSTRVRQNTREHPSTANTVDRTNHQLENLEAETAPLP
In turn, `C[C@@H](NC(=O)[C@@H](N)Cc1ccc(O)cc1)C(=O)N[C@@H](Cc1ccccc1)C(=O)NC(Cc1ccccc1)C(N)=O` (single isomer, unassigned) showed a Ki of 0.31 nM. Same read-out and setting: under `NC(=O)C(Cc1ccccc1)NC(=O)[C@H](Cc1ccccc1)NC(=O)[C@H]1Cc2ccccc2CN1C(=O)[C@@H](N)Cc1ccc(O)cc1` (single isomer, unassigned) stands 167 nM; under `NC(=O)[C@@H]1CCCN1C(=O)[C@H](Cc1ccccc1)NC(=O)[C@@H]1CCCN1C(=O)[C@@H](N)Cc1ccc(O)cc1` [MORPHICEPTIN] (H-YPFP-NH2), 80 nM; under `Cc1cc(O)cc(C)c1C[C@H](N)C(=O)N1CCC[C@H]1C(=O)N[C@@H](Cc1ccccc1)C(=O)N[C@@H](Cc1c[nH]c2ccccc12)C(N)=O` (H-[Dmt]PFW-NH2), 0.014 nM.

For the compound `Cc1cc(O)cc(C)c1C[C@H](N)C(=O)N1CCC[C@H]1C(=O)N[C@@H](Cc1ccccc1)C(=O)N[C@H](C(N)=O)[C@@H](C)c1ccccc1`, the Ki stood at 0.35 nM. Turning to `Cc1cc(O)cc(C)c1C[C@H](N)C(=O)N1CCC[C@H]1C(=O)N[C@@H](Cc1ccccc1)C(=O)N[C@@H](Cc1ccccc1)C(N)=O`, the Ki worked out at 0.21 nM. Same read-out and setting: the figure for `NC(=O)[C@H](Cc1c[nH]c2ccccc12)NC(=O)[C@H](Cc1ccccc1)NC(=O)[C@@H]1CCCN1C(=O)[C@@H](N)Cc1ccc(O)cc1` (H-YPFW-NH2) is 4.21 nM.

In the next test the target is Mu-type opioid receptor (Mus musculus, UniProt P42866). The experiment in a line: Inhibition of DAMGO (Tyr-[D-Ala]-Gly-[NMe-Phe]-Gly-ol) binding to mouse brain mu opioid receptor.
Sequence of Mu-type opioid receptor (Mus musculus, UniProt P42866) (P42866 whole entry): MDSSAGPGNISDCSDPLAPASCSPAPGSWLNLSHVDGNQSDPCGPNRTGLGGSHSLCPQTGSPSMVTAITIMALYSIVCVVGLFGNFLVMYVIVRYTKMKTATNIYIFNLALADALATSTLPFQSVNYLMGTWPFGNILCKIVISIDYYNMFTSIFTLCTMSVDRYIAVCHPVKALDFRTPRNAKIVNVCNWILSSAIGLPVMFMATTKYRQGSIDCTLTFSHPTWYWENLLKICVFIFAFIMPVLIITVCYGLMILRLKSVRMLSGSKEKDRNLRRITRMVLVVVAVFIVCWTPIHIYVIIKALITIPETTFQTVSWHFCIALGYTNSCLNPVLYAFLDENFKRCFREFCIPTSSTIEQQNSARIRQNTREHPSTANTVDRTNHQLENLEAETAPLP
In turn, `NC(=O)[C@H](Cc1ccccc1)NC(=O)[C@H](Cc1ccccc1)NC(=O)[C@@H]1Cc2ccccc2[C@@H]1NC(=O)[C@@H](N)Cc1ccc(O)cc1` came in with a Ki of 1000 nM. The same measure, in the same setting: under `NC(=O)[C@H](Cc1ccccc1)NC(=O)[C@H](Cc1ccccc1)NC(=O)[C@H]1Cc2ccccc2[C@H]1NC(=O)[C@@H](N)Cc1ccc(O)cc1` stands 241 nM; under `NC(=O)[C@H](Cc1ccccc1)NC(=O)[C@@H]1Cc2ccccc2[C@@H]1NC(=O)[C@@H]1CCCN1C(=O)[C@@H](N)Cc1ccc(O)cc1`, 298 nM; under `NC(=O)[C@H](Cc1ccccc1)NC(=O)[C@H]1Cc2ccccc2[C@H]1NC(=O)[C@@H]1CCCN1C(=O)[C@@H](N)Cc1ccc(O)cc1`, 128 nM.

In a further test the target is T1, Mu-type opioid receptor. The experiment in a line: Inhibition of DAMGO (Tyr-[D-Ala]-Gly-[NMe-Phe]-Gly-ol) binding torat brain mu opioid receptor.
Turning to `C[C@H](c1ccccc1)[C@@H](NC(=O)[C@H](Cc1ccccc1)NC(=O)[C@@H]1CCCN1C(=O)[C@@H](N)Cc1ccc(O)cc1)C(N)=O`, the Ki came to 45.3 nM.

The next test concerns the target T1, Mu-type opioid receptor. The experiment in a line: Inhibition of DAMGO (Tyr-[D-Ala]-Gly-[NMe-Phe]-Gly-ol) binding to rat brain opioid receptor.
On to `C[C@@H](c1ccccc1)[C@H](NC(=O)[C@H](Cc1ccccc1)NC(=O)[C@@H]1CCCN1C(=O)[C@@H](N)Cc1ccc(O)cc1)C(N)=O`, for which the Ki was 0.8 nM. On the same count and under the same terms, under `C[C@H](c1ccccc1)[C@H](NC(=O)[C@H](Cc1ccccc1)NC(=O)[C@@H]1CCCN1C(=O)[C@@H](N)Cc1ccc(O)cc1)C(N)=O` stands 26.3 nM. The same measure, in the same setting: under `C[C@@H](c1ccccc1)[C@@H](NC(=O)[C@H](Cc1ccccc1)NC(=O)[C@@H]1CCCN1C(=O)[C@@H](N)Cc1ccc(O)cc1)C(N)=O` stands 107 nM.

(Values after ChEMBL document CHEMBL1143632, “Ligand-based prediction of active conformation by 3D-QSAR flexibility descriptors and their application in 3+3D-QSAR models” (J Med Chem, 2005).)
